Test results taken from article PMC9965614, “Computer-Aided Virtual Screening and In Vitro Validation of Biomimetic Tyrosinase Inhibitory Peptides from Abalone Peptidome” (International Journal of Molecular Sciences, 2023).
Entries after “also recorded” stand apart in the source; their conditions may differ. Where a SMILES comes first, the peptide text is derived from it.

How the values were obtained:
cellular tyrosinase = biological target: T1, cellular tyrosinase (Mus musculus, UniProt P11344); assay: Intracellular (cellular) tyrosinase activity assay in UV-induced B16F10 cells; type: cell-based, murine; conditions: 70 μM peptide, UVA/UVB-induced B16F10 cells, triplicate
T1 construct: the harvested cells were lysed in cell extraction buffer; endogenous in cells; host or cells: B16F10 murine melanoma cells, UVA/UVB-induced
T1 sequence (P11344 19-533): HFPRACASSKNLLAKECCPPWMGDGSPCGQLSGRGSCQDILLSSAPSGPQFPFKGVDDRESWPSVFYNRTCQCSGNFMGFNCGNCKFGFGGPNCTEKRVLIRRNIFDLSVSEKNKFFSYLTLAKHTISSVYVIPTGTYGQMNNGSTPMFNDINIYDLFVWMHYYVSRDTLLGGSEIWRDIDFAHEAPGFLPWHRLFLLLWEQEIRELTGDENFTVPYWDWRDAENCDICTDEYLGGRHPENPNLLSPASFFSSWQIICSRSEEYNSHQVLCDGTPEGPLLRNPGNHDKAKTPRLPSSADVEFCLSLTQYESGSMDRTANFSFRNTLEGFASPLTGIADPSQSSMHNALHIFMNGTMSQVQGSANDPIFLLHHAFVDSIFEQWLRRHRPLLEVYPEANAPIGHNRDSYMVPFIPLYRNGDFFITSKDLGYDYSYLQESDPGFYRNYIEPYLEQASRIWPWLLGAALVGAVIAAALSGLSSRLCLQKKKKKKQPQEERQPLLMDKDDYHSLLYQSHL
Description: Tyrosinase activity was measured based on Dopa oxidase activity by estimating the dopachrome production according to the method by Qiao et al., 2012 [54], with some modifications. B16F10 cells were seeded at 5 × 10^6 cells/mL in 24-well plates. […] Each well was then washed and replaced with PBS 600 μL and induced with UVA (314-400 nm, 3.0 W) and UVB (280-315 nm, 13.6 W) using OSRAM (Ultra-Vitalux, Germany) for 22 s (0.32 J/cm^2). After that, the cells were incubated with medium 600 μL/well for a further 24 h. Then, the cells were trypsinized and the harvested cells were lysed in cell extraction buffer. After normalized protein concentration, 10 μL of each lysate supernatant was aliquoted into a 96-well plate and shaking incubated in dark conditions with 1 mM L-DOPA 90 μL in PBS at 37 °C at 280 rpm for 10 min. The absorbance was measured at 475 nm and all experiments were performed in triplicate to determine the IC50 of the samples. The cellular tyrosinase inhibitory activity was calculated with the following equation: % Cellular tyrosinase inhibition=[(C)-(S)/(C)]×100, where, C are defined as in the previous section.

B16F10 melanoma cells [1] = assay: Melanin content assay in UV-induced B16F10 cells; type: cell-based, murine; conditions: for inhibition of melanin content: 70 μM peptide, UVA/UVB-induced B16F10 cells, triplicate
Description: Cellular melanin content was measured using a modified method by Jegal, et al.. B16F10 cells were seeded at 5 × 10^5 cells/mL in 24-well plates. […] After that, the cells in each well were washed and replaced by PBS. The UV stimulation process was performed by the exposure to UVA (314-400 nm, 3.0 W) and UVB (280-315 nm, 13.6 W) for 22 s. Then, PBS was replaced with media and further incubated for 24 h. The UV-stimulated cells were then trypsinized and centrifuged at 1500 rpm for 5 min. The cell pellet was then dissolved in 2 M NaOH at 60 °C for 1 h to solubilize the melanin. The melanin content was estimated by measuring the absorbance at 405 nm. The melanin content was calculated with the following equation: % Melanin content=(S)/(C)×100, where, S is the OD405 of sample and C represents the OD405 of control. All experiments were performed in triplicate.

mushroom tyrosinase = mushroom tyrosinase (Agaricus bisporus, UniProt C7FF04); assay: Mushroom tyrosinase activity assay (L-DOPA oxidation, diphenolase); type: biochemical; conditions: L-DOPA substrate, up to 500 μM
Description: The inhibitory effect on mushroom tyrosinase was determined spectrophotometrically via L-DOPA oxidation. The reaction mixture consisted of 20 μL of hdTIPs, 140 μL of 100 mM sodium phosphate buffer (pH6.8) and 40 μL of 200 units/mL mushroom tyrosinase (EC 1.14.18.1; Sigma, Saint Louis, USA) placed in a 96-well microplate, then incubated for 10 min. After that, 20 μL of 5mM L-DOPA were mixed into each well over 20 min. Furthermore, the amount of dopachrome produced absorbance was measured at 475 nm. In addition, KA was used as the positive control at the same concentrations and conditions to hdTIPs. This method was modified from Kim et al..
The mushroom tyrosinase inhibitory activity was calculated with the following equation: % Mushroom tyrosinase inhibition=[(C)−(S)/(C)]×100, where, C represents the OD475 of control and S is the OD475 of sample. All experiments were performed in triplicate to determine the IC50 of the samples.

tyrosinase [2] = conditions: KNN machine learning model, 425 sequence features; cited from earlier work
From the text: (§1) Table 1 Abalone predicted TIPs by KNN and RF-based predictors and the predicted antioxidant scores by AnOxPePred 1.0 program. | column: Predicted Anti-Tyrosinase Probability / KNN Predictor || Previously, our research team proposed the in-house machine learning-based anti-tyrosinase prediction tool, which provides thousands of potential peptides. The probability scores of all 1079 peptides from KNN-based and RF-based models can be found in the supplementary file of the previous article by Kongsompong et al.. The KNN and RF predictors were trained and tested against 133 peptides with known anti-tyrosinase properties with 97% and 99% accuracy. The predictions of both models were based on the numeric matrix of 425 features calculated from amino acid composition (20 featur ...

tyrosinase [3] = conditions: RF machine learning model, 425 sequence features; cited from earlier work
From the text: as §1, with “/ RF” for “/ KNN”

[4] = system: reactive oxygen species (ROS) level in B16F10 cells; assay: ROS level in B16F10 cells after UV exposure (assay kit); type: cell-based, murine; conditions: 70 μM, UV-exposed B16F10 cells, compared to untreated control group
Description: (§2) To determine the antioxidant activity, the centrifugation precipitate from Section 4.6 was dissolved in 1 mL of 1 M NaOH containing 10% DMSO at 80 °C for 1 h. Various assay kits, all from Beijing Solarbio Science & Technology Co., Ltd., Beijing, China, were used to measure the quantity of reduced reactive oxygen species (ROS) and the activity of superoxide dismutase (SOD), catalase (CAT), and glutathione peroxidase (GPx) according to the methods by Hu et al..

[5] = system: superoxide dismutase (SOD); assay: Antioxidative enzyme activity, superoxide dismutase (assay kit); type: cell-based, murine; conditions: 70 μM, UV-exposed B16F10 cells
Description: as §2

catalase (CAT) = assay: Antioxidative enzyme activity, catalase (assay kit); type: cell-based, murine; conditions: 70 μM, UV-exposed B16F10 cells
Description: as §2

B16F10 melanoma cells [6] = assay: Cell viability assay (MTT assay); type: cell-based, murine; conditions: 0–1000 μg/mL, 24 h
Description: The number of viable cells was determined by the ability of mitochondria to convert MTT to formazan dye. The quantity of formazan formed is proportional to the number of viable cells present and can be measured spectrophotometrically. The method for MTT assay in this study was modified from Zaidi et al.. […] After 24 h incubation, 1 mg/mL of MTT (Invitrogen, Eugene, USA) solution was replaced prior to incubation at 37 °C for 3 h. The formazan precipitates were dissolved by 100 μL of dimethyl sulfoxide (DMSO) and the concentrations were measured at 570 nm in a microplate reader (Synergy H1, BioTek, Santa Clara USA). Cell viability was calculated using the following formula: cell viability (%) = (Asample/Acontrol) × 100, where Asample and Acontrol are the absorbances from the mixture with or without the addition of test sample, respectively.

Sequence of mushroom tyrosinase (C7FF04 1-392): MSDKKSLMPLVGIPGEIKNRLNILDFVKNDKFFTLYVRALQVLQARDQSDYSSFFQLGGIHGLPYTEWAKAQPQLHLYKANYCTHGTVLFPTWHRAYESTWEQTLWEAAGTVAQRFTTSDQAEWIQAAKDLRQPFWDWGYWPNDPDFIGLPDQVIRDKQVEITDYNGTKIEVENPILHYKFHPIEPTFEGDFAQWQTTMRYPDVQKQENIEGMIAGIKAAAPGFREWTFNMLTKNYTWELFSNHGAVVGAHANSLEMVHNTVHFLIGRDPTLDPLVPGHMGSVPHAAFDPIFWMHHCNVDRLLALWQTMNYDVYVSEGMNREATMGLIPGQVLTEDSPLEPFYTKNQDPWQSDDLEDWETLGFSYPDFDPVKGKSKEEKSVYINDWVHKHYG
Sequence of mushroom tyrosinase (G1K3P4 1-150 partner): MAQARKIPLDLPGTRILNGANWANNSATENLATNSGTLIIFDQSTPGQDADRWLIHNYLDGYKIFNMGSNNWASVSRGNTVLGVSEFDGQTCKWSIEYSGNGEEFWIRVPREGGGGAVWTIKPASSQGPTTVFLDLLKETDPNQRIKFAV

inhibition of cellular tyrosinase (cellular tyrosinase) | SMILES | inhibition of melanin content (B16F10 melanoma cells [1]) | Predicted Anti-Tyrosinase Probability KNN Predictor (tyrosinase [2]) | Predicted Anti-Tyrosinase Probability RF Predictor (tyrosinase [3]) | effect on relative percentage of ROS in melanoma cells [4] | also measured
3.32% | CSCC[C@H](NC(=O)[C@H](Cc1ccccc1)NC(=O)[C@@H]1CCCN1C(=O)[C@H](C)NC(=O)[C@@H](N)CO)C(=O)N1CCC[C@H]1C(=O)N[C@@H](CC(=O)O)C(=O)N[C@@H](C)C(=O)N[C@@H](Cc1ccccc1)C(=O)N[C@@H](Cc1ccccc1)C(=O)N[C@@H](CCCNC(=N)N)C(=O)N[C@@H](CC(N)=O)C(=O)N[C@H](C(=O)O)C(C)C [TIP2] (H-SAPFMPDAFFRNV-OH; N-terminus and C-terminus assumed) | 6.71% |  |  |  | 
 | CC(C)C[C@H](NC(=O)[C@H](CO)NC(=O)[C@H](CO)NC(=O)[C@@H](N)CC(N)=O)C(=O)N[C@@H](CCCNC(=N)N)C(=O)N[C@H](C(=O)N[C@@H](CCC(N)=O)C(=O)N[C@@H](CO)C(=O)N[C@@H](CCCNC(=N)N)C(=O)O)C(C)C [RF2] (H-NSSLRVQSR-OH; N-terminus and C-terminus assumed) |  | 0.00 | 0.60 |  | inhibitory effect on mushroom tyrosinase (diphenolase activity) (mushroom tyrosinase): did not show any inhibition
 | O=c1cc(CO)occ1O [kojic acid, reference compound] |  |  |  |  | inhibition at 100 µg/mL (B16F10 melanoma cells [1]; Mus musculus, B16-F10, light or radiation study): 21.1%
unable to inhibit | CC[C@H](C)[C@H](NC(=O)[C@@H](N)CC(N)=O)C(=O)N[C@@H](CS)C(=O)N[C@@H](CCC(=O)O)C(=O)N[C@@H](CS)C(=O)N[C@@H](CCSC)C(=O)N[C@@H](CCCCN)C(=O)O [KNN1] (H-NICECMK-OH; N-terminus and C-terminus assumed) | unable to inhibit; also recorded: did not inhibit | 1.00 | 0.39 |  | 
 | C[C@H](NC(=O)[C@H](CC(=O)O)NC(=O)[C@H](CO)NC(=O)[C@H](CO)NC(=O)[C@H](C)NC(=O)[C@@H](N)[C@@H](C)O)C(=O)N[C@@H](Cc1c[nH]c2ccccc12)C(=O)N[C@@H](Cc1ccc(O)cc1)C(=O)N[C@@H](CCCNC(=N)N)C(=O)O [TIP1] (H-TASSDAWYR-OH; N-terminus and C-terminus assumed) |  |  |  | significant reductive effects | 
 | CC(C)[C@H](NC(=O)[C@H](CCCNC(=N)N)NC(=O)[C@H](Cc1ccc(O)cc1)NC(=O)[C@H](CC(N)=O)NC(=O)[C@H](CCCCN)NC(=O)[C@@H](N)CCCCN)C(=O)N[C@@H](CO)C(=O)N[C@@H](CCC(=O)O)C(=O)N[C@@H](C)C(=O)N[C@@H](Cc1ccc(O)cc1)C(=O)N[C@@H](CCCCN)C(=O)O [KNN3] (H-KKNYRVSEAYK-OH; N-terminus and C-terminus assumed) |  | 1.00 | 0.32 |  | 
5.11% | CC(C)[C@H](NC(=O)[C@H](CO)NC(=O)[C@H](CCCNC(=N)N)NC(=O)[C@H](CO)NC(=O)[C@H](CC(N)=O)NC(=O)[C@H](CO)NC(=O)[C@H](CCC(N)=O)NC(=O)[C@@H](N)CO)C(=O)N[C@@H](CO)C(=O)N[C@@H](CCCNC(=N)N)C(=O)O [RF3] (H-SQSNSRSVSR-OH; N-terminus and C-terminus assumed) | 6.09% | 0.00 | 0.52 | significant reductive effects | effect on SOD activity [5]: affected; effect on CAT activity (catalase (CAT)): affected
 | OC[C@H]1O[C@@H](Oc2ccc(O)cc2)[C@H](O)[C@@H](O)[C@@H]1O [arbutin, reference compound] |  |  |  |  | effect on cell proliferation of melanoma cells (B16F10 melanoma cells [6]): did not affect the cell proliferation

SMILES | inhibition of cellular tyrosinase (cellular tyrosinase) | inhibition of melanin content (B16F10 melanoma cells [1]) | Predicted Anti-Tyrosinase Probability KNN Predictor (tyrosinase [2]) | Predicted Anti-Tyrosinase Probability RF Predictor (tyrosinase [3]) | effect on relative percentage of ROS in melanoma cells [4] | also measured
C[C@H](NC(=O)[C@@H](N)CO)C(=O)N1CCC[C@H]1C(=O)N[C@H](C(=O)N[C@@H](Cc1ccccc1)C(=O)N[C@@H](Cc1ccccc1)C(=O)N[C@@H](CCCNC(=N)N)C(=O)O)[C@@H](C)O [RF1] (H-SAPTFFR-OH; N-terminus and C-terminus assumed) | 18.26% | 10.69% | 0.00 | 0.63 | significant reductive effects | inhibitory effect on mushroom tyrosinase (diphenolase activity) (mushroom tyrosinase): did not inhibit
